From US20070060605A1, “Compositions and methods for inhibiting platelet activation and thrombosis” (priority 2001, published 2007)
Where two headings read alike, the source gives them in different places.

Columns and labels:
[1] = system: platelet accumulation into thrombus; assay type: in vivo
Description: A preferred animal model involves intravital microscopy of laser-induced thrombi. The method is described by Rosen et al., 2001, Am J Pathol 158, 1613-1622, which is incorporated herein by reference. Minor variations of that method were employed as described below.
Experimental mice are pre-anesthetized and surgically prepared. A tracheal tube is placed to facilitate breathing and the jugular vein is canulated to allow for maintenance of anesthetic and introduction of compound. The cremaster muscle is then exteriorized. The muscle is affixed over a glass slide, allowing illumination from below. A steady drip of a sodium-bicarbonate buffered salt solution is maintained throughout the experiment to keep the exposed muscle moist. Blood flow in the muscle is visualized using a 40× water immersion lens and epi-illuminated with an appropriately filtered light source. Alexa 488-labeled anti-mouse CD41 antibody is injected through the jugular canulus to label platelets in vivo.
Thrombosis is initiated by damaging the vessel wall (of a 30 μm vessel) with a laser pulse from a MicroPoint LASER attached to the microscope. A LASER pulse is delivered, causing damage in an area smaller than 1 μm. The recruitment of platelets to the thrombus is then monitored by the accumulation of (activated) Alexa 488-labeled platelets at the ablation site using fluorescence microscopy, and the process is recorded digitally. The method thus permits in vivo analysis of platelet activation as measured by platelet aggregation and thrombosis.
The degree of embolization in an untreated mouse can be quantified using software for image analysis, e.g., BioQuant True Color Windows (Biometrics, Nashville, Tenn.), as described in Rosen et al., 2001, supra. The software package permits the determination of the “integrated optical density” or IOD of the thrombus.
Using quantitative intravital fluorescence videomicroscopy with high temporal resolution (111 images/second), the effect of PDE3 inhibition on the platelet recruitment into thrombi was directly observed over time. Platelets were fluorescently labeled by infusing rat-anti-mouse CD41 and Alexa 488-anti-rat IgG through a cannulated jugular vein. The cremaster microvasculature was exposed and mapped and suitable arteriole segments were selected for laser-induced injury. A series of control injuries were generated prior to infusion of the inhibitory compound. The power and the number of laser pulses required to generate each thrombus was recorded. Platelet accumulation to the thrombi following laser ablation was recorded using digital videomicroscopy. The thrombus total fluorescence in each frame of the videos was analyzed using Slidebook software for digital videomicroscopy. The pyridazinone compound was then infused. Following a 15 minute incubation, a series of experimental injuries were generated 250 μm proximal, with relationship to blood flow, of the first injury and the resultant thrombi were recorded. The power and the number of pulses required to induce the control thrombus was used to induce the experimental thrombus. The control and experimental thrombi constituting a pair were compared for statistical analysis. The total fluorescence intensity of the thrombi before and after the infusion of pyridazinone compound was recorded.
Images from a representative experiment of the recruitment of fluorescently-labeled […] platelets into a growing thrombus over time is shown in FIG. 9A.

platelet GPIIbIIIa = test: SFLLR-induced GPIIbIIIa activation (PAC-1 antibody, flow cytometry); assay type: cell-based, human; conditions: PAC-1 antibodies
Experimental: In order to assay platelet activation by cell surface marker expression, fresh PRP is isolated from donors who have not ingested aspirin for two weeks prior to donation. PRP (40 μl) is incubated with known or suspected inhibitor in DMSO or DMSO alone for 15 min. The sample is then incubated with the indicated agonist (e.g., SFLLR) for 10 min. Following incubation of the sample with the indicated agonist, 10 μl of reaction mixture is transferred to 5 μl of phycoerythrin (PE)-conjugated AC 1.2 anti-P-selectin antibody (for assessment of P-selectin surface expression) or fluorescein isothiocyanate (FITC)-conjugated PAC-1 antibody (for assessment of GPIIbIIIa activation). PBS (500 μl) is added to the sample after a 20 min incubation and the platelets are analyzed immediately by flow cytometry. Flow cytometry can be performed using, for example, a Becton-Dickinson FACSCalibur flow cytometer or its equivalent. Fluorescent channels are set at logarithmic gain. Ten thousand particles are acquired for each sample. A 530/30 band pass filter is used for FL-1 fluorescence. A 585/42 band pass filter is used for FL-2 fluorescence. FITC is measured in the FL-1 channel and PE is measured in the FL-2 channel. Data are analyzed using, for example, CellQuest software on a Macintosh PowerPC, or their equivalents.
Compounds were also tested by flow cytometry for the inhibition of SFLLR-induced GPIIbIIIa activation and P-selectin expression. In these experiments, freshly obtained PRP was prepared from healthy volunteers who had not ingested aspirin for two weeks prior to donation. Forty μl of PRP was incubated with inhibitor in DMSO or DMSO alone for 15 min. The sample was then incubated with the indicated agonist for 10 min. Following incubation of the sample with the indicated agonist, 10 μl of reaction mixture was transferred to 5 μl of PE-conjugated AC1.2 anti-P-selectin antibody (for assessment of P-selectin surface expression) or FITC-conjugated PAC-1 antibody (for assessment of GPIIbIIIa activation). PBS (500 μl) was added to the sample after a 20 min incubation and the platelets were analyzed immediately by flow cytometry. Flow cytometry was performed using a Becton-Dickinson FACSCalibur flow cytometer. Fluorescent channels were set at logarithmic gain. Ten thousand particles were acquired for each sample. A 530/30 band pass filter was used for FL-1 fluorescence. A 585/42 band pass filter was used for FL-2 fluorescence. FITC was measured in the FL-1 channel and PE was measured in the FL-2 channel. Data were analyzed using CellQuest software on a MacIntosh PowerPC.

recombinant human PDE2 = recombinant human PDE2 (Homo sapiens, UniProt O00408); test: Phosphodiesterase inhibition, PDE2; assay type: biochemical; conditions: up to 1 μM
Experimental: Intracellular cAMP generated by adenylyl cyclase in platelets is actively hydrolyzed by phosphodiesterase. […] Human platelets express PDE2, PDE3, and PDE5. Therefore, the compound was tested for its inhibitory effect on these phosphodiesterases using methods as described in Example 3.

Chain of recombinant human PDE2 (O00408 whole entry): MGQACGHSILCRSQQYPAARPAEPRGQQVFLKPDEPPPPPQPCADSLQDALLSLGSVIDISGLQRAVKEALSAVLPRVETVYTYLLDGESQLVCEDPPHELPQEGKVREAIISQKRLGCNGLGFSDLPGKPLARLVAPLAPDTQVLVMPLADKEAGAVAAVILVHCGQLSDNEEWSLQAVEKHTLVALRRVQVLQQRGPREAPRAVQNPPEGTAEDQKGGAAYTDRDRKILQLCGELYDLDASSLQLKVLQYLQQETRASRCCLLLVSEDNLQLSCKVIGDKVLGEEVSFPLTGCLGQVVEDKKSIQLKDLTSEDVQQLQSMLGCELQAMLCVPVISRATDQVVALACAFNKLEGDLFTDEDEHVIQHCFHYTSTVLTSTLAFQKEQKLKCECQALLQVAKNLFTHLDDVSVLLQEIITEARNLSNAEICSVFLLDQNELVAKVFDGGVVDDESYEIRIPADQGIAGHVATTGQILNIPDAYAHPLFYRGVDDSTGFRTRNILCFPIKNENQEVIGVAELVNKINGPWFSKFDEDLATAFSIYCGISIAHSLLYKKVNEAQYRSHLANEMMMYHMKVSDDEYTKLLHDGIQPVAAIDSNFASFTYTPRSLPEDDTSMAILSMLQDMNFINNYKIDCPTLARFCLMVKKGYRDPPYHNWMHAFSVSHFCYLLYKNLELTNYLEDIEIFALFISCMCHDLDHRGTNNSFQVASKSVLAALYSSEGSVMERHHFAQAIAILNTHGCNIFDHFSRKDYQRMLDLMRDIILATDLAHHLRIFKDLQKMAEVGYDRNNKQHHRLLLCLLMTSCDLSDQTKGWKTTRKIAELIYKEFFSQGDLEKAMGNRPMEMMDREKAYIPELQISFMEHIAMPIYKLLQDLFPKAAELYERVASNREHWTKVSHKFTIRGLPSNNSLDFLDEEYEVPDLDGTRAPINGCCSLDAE

With `CCCCCn1c2c(c(=N)c3ccccc31)CCC2` [JF081204{5C}] the “Time for thrombus to achieve 50% maximum platelet accumulation / onset of platelet accumulation” value ([1]; 1 mg/kg (P<0.001), 3 mg/kg (P<0.05), 6 mg/kg (P<0.001)) was “statistically significant delay”, the “Platelet accumulation over stages of thrombus formation” value ([1]; 1 mg/kg, 3 mg/kg, and 6 mg/kg) was “inhibited at all stages” and the “Median of maximum platelet accumulation compared to absence of compound” value ([1]; 3 mg/kg (P<0.002) and 6 mg/kg (P<0.02)) was “statistically significant decrease”. For the same compound, the “Median stabilized platelet accumulation” value ([1]; 3 mg/kg (P<0.01) and 6 mg/kg (P<0.001)) was “dose-dependent inhibition”, the “Inhibition of maximum platelet accumulation” value ([1]; dose-dependent, 1-6 mg/kg) was “up to 80%” and the “Inhibition of stabilized platelet accumulation” value ([1]; dose-dependent, 5 minutes following laser injury) was “up to 75%”.
For `CC1CC(=O)NN=C1c1ccc(N)c([N+](=O)[O-])c1` (stereo not shown) [6-(4-Amino-3-nitro-phenyl)-5-methyl-4,5-dihydro-2H-pyridazin-3-one], the “SFLLR-induced αIIbβ3 activation” value (platelet GPIIbIIIa) was “inhibited”, the “Inhibition of recombinant human PDE2” value (recombinant human PDE2; listed as Pyridazinone compound) was “No significant inhibition” and the “Inhibition of recombinant human PDE2” value (recombinant human PDE2; listed as pyridazinone compound) was “little inhibition”. For the same compound, the “Inhibition of maximal rate of platelet recruitment” value ([1]; 0.3 mg/kg) was 37%, the “Median Stabilized/Maximum platelet accumulation” value ([1]; 0.3 mg/kg) was 36% and the “Inhibition of maximum platelet accumulation” value ([1]; 0.6 mg/kg) was 61%. For the same compound, the “Median Stabilized/Maximum platelet accumulation” value ([1]; 0.6 mg/kg) was 41%, the Stabilized platelet accumulation ([1]; 0.6 mg/kg (P<0.05) and 1.2 mg/kg (P<0.01)) was “dose-dependent inhibition” and the “Maximum platelet accumulation compared to absence of compound” value ([1]; 0.6 mg/kg and 1.2 mg/kg (P<0.05)) was “statistically significant decrease”. The “Inhibition of stabilized platelet accumulation” value ([1]; 0.6 mg/kg, 300 seconds after laser injury) was 54%, the “Inhibition of maximal rate of platelet recruitment” value ([1]; 1.2 mg/kg) was 56% and the “Inhibition of maximum platelet accumulation” value ([1]; 1.2 mg/kg) was 56%. For the same compound, the “Median Stabilized/Maximum platelet accumulation” value ([1]; 1.2 mg/kg) was 33%, the “Inhibition of stabilized platelet accumulation” value ([1]; 1.2 mg/kg, 300 seconds after laser injury) was 72% and the “Median total thromboembolization, % of the maximum platelet accumulation of control thrombi” value ([1]; 1.2 mg/kg, p<0.04) was 1.0%. For the same compound, the Thromboembolization ([1]; after infusion of 1.2 mg/kg) was “significantly reduced”, the Reduction of embolization ([1]; after injection, laser-induced thrombus) was “greater than 80%” and the “Inhibition of thrombus formation” value ([1]; laser-induced thrombosis, P<0.01) was 72%. For the same compound, the Thromboembolization ([1]; same mouse model, dose not stated) was “inhibited”.
